Results taken from article PMC6481345, “A novel anti-melanoma SRC-family kinase inhibitor” (Oncotarget, 2019).
Where two headings read alike, the source gives them in different places.

Tests used:
Type in all cases: cell-based, human
phospho-ERBB2 Y1196 = assay: Western blot, phospho-ERBB2; settings: YUSOC, YUROB, YUSIV, YUTOGS
Protocol: We used standard techniques to identify changes in intracellular signaling in response to various treatments. Briefly, melanoma cells were incubated with test compounds, using DMSO as a control, collected by scraping on ice, and lysed in RIPA buffer supplemented with protease and phosphatase inhibitors (MA #78428, and #78425, respectively, Thermo Fisher Scientific, Waltham, MA). Protein concentrations were measured with the BioRad kit (Bio-Rad Laboratories, Hercules, CA), SDS sample buffer was added, extracts were heated at 95°C, sonicated and centrifuged. Cell extracts (20 µg/lane) were fractionated in 3%–8% or 4–12 % tris-acetate gel (NP0006, NuPAGE Life Technologies). […]

YUSIV melanoma cells = assay: CellTiter-Glo Luminescent Cell Viability Assay
Protocol: (§1) The melanoma cells were grown in OptiMEM (Invitrogen, Carlsbad, CA) supplemented with 5% fetal calf serum and antibiotics. The normal human melanocytes (NBMEL) were grown in medium supplemented with bFGF, IBMX and dbcAMP [32]. Most of the Yale melanoma cell lines were characterized by next-generation sequencing (Supplementary Table 2).
(§2) Cell proliferation was measured with the CellTiter-Glo® Luminescent Cell Viability Assay (Promega Corporation, Madison, WI). Melanoma cells were seeded in 96-well plates in triplicate or quadruplet wells, with increasing concentrations of kinase inhibitors for 72 hrs. The rate of proliferation was also tested after knockdown of different SRC-family kinases (SFK) with hairpin lentivirus shRNA as indicated. […] The statistical significance of synergism of response to drug combinations was evaluated by following Chou and Talalay algorithm. See also details in Supplementary Material.

YUSOC melanoma cells = assay: CellTiter-Glo Luminescent Cell Viability Assay; settings: RAF1 T491I, NF1 null/RAC1 P29S
Protocol: as §1, §2

YUSEEP melanoma cells = assay: CellTiter-Glo Luminescent Cell Viability Assay; settings: growth response
Protocol: as §1, §2

501 mel melanoma cells = assay: CellTiter-Glo Luminescent Cell Viability Assay; settings: for IC50: Homo sapiens
Protocol: as §1, §2

YUSIT1 melanoma cells = assay: CellTiter-Glo Luminescent Cell Viability Assay
Protocol: as §1, §2

YUPEET melanoma cells = assay: CellTiter-Glo Luminescent Cell Viability Assay
Protocol: as §1, §2

YUSIK melanoma cells = assay: CellTiter-Glo Luminescent Cell Viability Assay
Protocol: as §1, §2

YUROB melanoma cells = assay: CellTiter-Glo Luminescent Cell Viability Assay
Protocol: as §1, §2

YUKIM melanoma cells = assay: CellTiter-Glo Luminescent Cell Viability Assay
Protocol: as §1, §2

pERK T202/Y204 = assay: Western blot, phospho-MEK and phospho-ERK; settings: melanoma cells; 0.5 µM or 1 µM, 2-72 hours
Protocol: We used standard techniques to identify changes in intracellular signaling in response to various treatments. Briefly, melanoma cells were incubated with test compounds, using DMSO as a control, collected by scraping on ice, and lysed in RIPA buffer supplemented with protease and phosphatase inhibitors (MA #78428, and #78425, respectively, Thermo Fisher Scientific, Waltham, MA). Protein concentrations were measured with the BioRad kit (Bio-Rad Laboratories, Hercules, CA), SDS sample buffer was added, extracts were heated at 95°C, sonicated and centrifuged. Cell extracts (20 µg/lane) were fractionated in 3%–8% or 4–12 % tris-acetate gel (NP0006, NuPAGE Life Technologies). We probed with the following primary antibodies: phospho-SRC Tyr416 (CST #2101S), pSRC Tyr527 (#2105), SRC (#2108), pPI3K p85 Y458/p55 Y199 (#4228), LYN (C13F9, #2796), FYN (#4023), phospho-MEK1/2 pSer217/221 (#9121), MEK1/2, phospho-ERK2 pThr202/Tyr204 (#9101), ERK1/2 (#9107), phospho-p38 kinase T180/Y182 (#9216), p38 kinase (#9212), PP2A (#2259), pSHP2 Y542 (#3751), SHP2 (D50F2, #3397), ERBB2 (D8F12 XP(R), #4290), phospho-ERBB2 Y1196 (D66B7 #6942), MYC (D84C12, #5605); GAPDH (14C10, #2118), all from Cell Signaling Technology, Beverly, MA; phospho-PP2A Y307 (AF3989), and MITF (clone D5, #AF5769) from R&D Systems, Inc., Minneapolis, MN; p27KIP1 (#10241) and YES (#610375) from BD Biosciences, San Jose, CA; Cyclin D1 (#04-221) and β-actin (mouse mAb A5316) from MilliporeSigma, St. Louis, MO; PI3K Antibody (p85 alpha, NSJ R30480) from Bioreagents, 9921 Carmel Mountain Rd #352, San Diego, CA. All antibodies were used at the concentrations recommended by the manufacturers.

SMILES: Nc1ncnc2c1c(-c1ccc(Oc3ccccc3)cc1)nn2C[C@@H]1SSC[C@@H]1O [SAB298, (3S, 4S)-3-((4-amino-3-(4-phenoxyphenyl)-1H-pyrazolo[3,4-d]pyrimidin-1-yl)methyl)-1,2-dithiolan-4-ol]
- phospho-ERBB2 Y1196 level (phospho-ERBB2 Y1196): suppressed phospho-ERBB2 Y1196
- IC50 (YUSIV melanoma cells; Homo sapiens, PDE8A-RAF1 fusion, cell viability, 72 hrs): 81 nM
- AUC1 (YUSIV melanoma cells; growth response): 656
- AUC2 (YUSIV melanoma cells; growth response): 10
- IC50 (YUSOC melanoma cells; Homo sapiens, 72 h): 154 nM
- IC50 (YUSOC melanoma cells; 72 hrs): 157 nM
- AUC1 (YUSEEP melanoma cells): 292
- AUC2 (YUSEEP melanoma cells): 40
- AUC1 (501 mel melanoma cells; 501 mel, growth response): 37
- AUC2 (501 mel melanoma cells; 501 mel, growth response): 133
- IC50 (501 mel melanoma cells; 501 mel BRAF V600E, Variation 2 (0 effect omitted), read-out: Dm (dose for median effect, median-effect equation)): 3.86 µM
- IC50 (501 mel melanoma cells; 501 mel BRAFV600E, Variation 1 (0 effect coded 1E-6), read-out: Dm (dose for median effect, median-effect equation)): 7.15 µM
- IC50 (501 mel melanoma cells; 72 h, 501 mel, BRAF V600E, cell viability, 72 hrs, read-out: IC50): 0.551 µM
- IC50 (YUSIT1 melanoma cells; Homo sapiens, YUSIT1, BRAF V600K, cell viability, 72 hrs): 238 nM
- AUC1 (YUSIT1 melanoma cells; YUSIT1, growth response): 166
- AUC2 (YUSIT1 melanoma cells; YUSIT1, growth response): 32
- IC50 (YUPEET melanoma cells; Homo sapiens, BRAF V600E, cell viability, 72 hrs): 55 nM
- AUC1 (YUPEET melanoma cells; growth response): 672
- AUC2 (YUPEET melanoma cells; growth response): 7
- IC50 (YUSIK melanoma cells; Homo sapiens, 72 h, YUSIK, BRAF V600E, cell viability, 72 hrs, read-out: IC50): 129 nM
- IC50 (YUSIK melanoma cells; Homo sapiens, YUSIK BRAF V600E, Variation 2 (0 effect omitted), read-out: Dm (dose for median effect, median-effect equation)): 155 nM
- IC50 (YUSIK melanoma cells; Homo sapiens, YUSIK BRAFV600E, Variation 1 (0 effect coded 1E-6), read-out: Dm (dose for median effect, median-effect equation)): 864 nM
- IC50 (YUSIK melanoma cells; YUSIK, BRAF V600E, cell viability, 72 hrs, read-out: IC50): 141 nM
- AUC1 (YUSIK melanoma cells; YUSIK, growth response): 540
- AUC2 (YUSIK melanoma cells; YUSIK, growth response): 23
- IC50 (YUROB melanoma cells; Homo sapiens, 72 h, YUROB, HRAS Q61K, cell viability, 72 hrs, read-out: IC50): 696 nM
- IC50 (YUROB melanoma cells; Homo sapiens, YUROB HRAS Q61K, Variation 2 (0 effect omitted), read-out: Dm (dose for median effect, median-effect equation)): 1860 nM
- IC50 (YUROB melanoma cells; Homo sapiens, YUROB HRASQ61K, Variation 1 (0 effect coded 1E-6), read-out: Dm (dose for median effect, median-effect equation)): 5180 nM
- IC50 (YUROB melanoma cells; YUROB, HRAS Q61K, cell viability, 72 hrs, read-out: IC50): 1250 nM
- AUC1 (YUROB melanoma cells; YUROB, growth response): 148
- AUC2 (YUROB melanoma cells; YUROB, growth response): 9
- IC50 (YUKIM melanoma cells; Homo sapiens, NRAS Q61R, cell viability, 72 hrs): 561 nM
- AUC1 (YUKIM melanoma cells; growth response): 173
- AUC2 (YUKIM melanoma cells; growth response): 60
- phospho-MEK and phospho-ERK (pERK T202/Y204) levels (pERK T202/Y204): increased, rather than decreased
